In article PMC3027604, “Spermine oxidase (SMO) activity in breast tumor tissues and biochemical analysis of the anticancer spermine analogues BENSpm and CPENSpm” (2010) one finds Ki data, which are given here for three molecules.

Experiment [1] concerns the target T1, spermine oxidase (mSMO) (Mus musculus, UniProt Q99K82).
T1 construct: gene Smox; Murine recombinant SMO
In words: enzyme inhibition of recombinant mSMO with Spm as substrate, Dixon plot. In kind it is biochemical.

Experiment [2] deals with T1, spermine oxidase (mSMO). In words: enzyme inhibition of mSMO, Ki in Table […] (reference inhibitor; assay not detailed in Methods). As to conditions: cited from earlier work. Format: biochemical.

Structures are written as SMILES.

T1 sequence (Q99K82 whole entry): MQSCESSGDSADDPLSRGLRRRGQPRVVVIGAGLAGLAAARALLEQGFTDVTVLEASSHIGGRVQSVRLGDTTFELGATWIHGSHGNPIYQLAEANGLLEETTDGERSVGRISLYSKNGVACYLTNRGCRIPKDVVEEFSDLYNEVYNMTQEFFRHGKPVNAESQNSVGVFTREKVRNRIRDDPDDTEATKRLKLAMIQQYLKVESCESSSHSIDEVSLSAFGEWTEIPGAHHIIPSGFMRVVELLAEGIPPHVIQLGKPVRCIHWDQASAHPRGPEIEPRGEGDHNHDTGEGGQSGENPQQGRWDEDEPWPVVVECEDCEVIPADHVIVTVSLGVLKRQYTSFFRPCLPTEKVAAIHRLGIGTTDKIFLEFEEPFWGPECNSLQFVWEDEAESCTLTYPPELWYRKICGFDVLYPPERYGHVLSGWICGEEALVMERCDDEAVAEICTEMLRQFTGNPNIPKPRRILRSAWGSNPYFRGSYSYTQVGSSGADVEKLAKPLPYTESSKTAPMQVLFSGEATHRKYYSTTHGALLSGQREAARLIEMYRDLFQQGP

With `CCNCCCNCCCNCCCNCC` [BENSpm], the Ki in experiment [1] was 380 µM. Same read-out and setting: the value for `CCNCCCNCCCNCCCNCC1CC1` [CPENSpm, N^1-ethyl-N^11-(cyclopropyl)-methyl-4,8-diazaundecane] was 85 µM. `C=C=CCNCCCCNCC=C=C` [MDL72527, N^1, N^4-bis(2,3-butadienyl)-1,4butanediamine]: the Ki in experiment [2] is 63 µM.
